Assay results reported in patent US9302999B2, “Substituted triazoles as herbicides” (E. I. DU PONT DE NEMOURS AND COMPANY, priority 2012, dated 2016).

Tests used:
Assay type in all cases: in vivo
[1] = tested on: barnyardgrass (Echinochloa crus-galli); test: Test A pre-/postemergence: barnyardgrass; conditions: for Barnyardgrass plant response rating: Postemergence; for Plant response rating, Barnyardgrass: Preemergence
Summary of the method: (§1)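 Visual 0–100 injury ratings (0 no effect, 100 complete control) taken about ten days after treatment, relative to untreated controls. Preemergence treatment was a directed soil spray; postemergence plants were 2–10 cm tall at one- to two-leaf stage. Soil: loam/sand blend.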

[2] = tested on: crabgrass, large (large crabgrass, Digitaria sanguinalis); test: Test A pre-/postemergence: crabgrass, large; conditions: for Crabgrass, Large plant response rating: Postemergence; for Plant response rating, Crabgrass, Large: Preemergence
Summary of the method: as §1

[3] = tested on: foxtail, giant (giant foxtail, Setaria faberii); test: Test A pre-/postemergence: foxtail, giant; conditions: for Foxtail, Giant plant response rating: Postemergence; for Plant response rating, Foxtail, Giant: Preemergence
Summary of the method: as §1

[4] = tested on: morningglory (Ipomoea spp.); test: Test A pre-/postemergence: morningglory; conditions: for Morningglory plant response rating: Postemergence; for Plant response rating, Morningglory: Preemergence
Summary of the method: as §1

[5] = tested on: pigweed (Amaranthus retroflexus); test: Test A pre-/postemergence: pigweed; conditions: for Pigweed plant response rating: Postemergence; for Plant response rating, Pigweed: Preemergence
Summary of the method: as §1

[6] = tested on: velvetleaf (Abutilon theophrasti); test: Test A pre-/postemergence: velvetleaf; conditions: for Velvetleaf plant response rating: Postemergence; for Plant response rating, Velvetleaf: Preemergence
Summary of the method: as §1

[7] = tested on: wheat (Triticum aestivum); test: Test A pre-/postemergence: wheat; conditions: for Wheat plant response rating: Postemergence; for Plant response rating, Wheat: Preemergence
Summary of the method: as §1

corn (Zea mays) = test: Test A pre-/postemergence: corn; conditions: for Corn plant response rating: Postemergence; for Plant response rating, Corn: Preemergence
Summary of the method: as §1

rice (Oryza sativa) = test: Test C flooded paddy test: rice; conditions: scale 0 to 100 (0 no effect, 100 complete control)
Summary of the method: (§2)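 Visual ratings from 0 (no effect) to 100 (complete control), made against untreated controls 13 to 15 days after treatment, express plant response. Compounds went directly into paddy water over 2-leaf stage plants in pots flooded to 3 cm.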

[8] = tested on: sedge, umbrella (small-flower umbrella sedge, Cyperus difformis); test: Test C flooded paddy test: sedge, umbrella; conditions: scale 0 to 100 (0 no effect, 100 complete control)
Summary of the method: as §2

[9] = tested on: ducksalad (Heteranthera limosa); test: Test C flooded paddy test: ducksalad; conditions: scale 0 to 100 (0 no effect, 100 complete control)
Summary of the method: as §2

[10] = tested on: barnyardgrass (Echinochloa crus-galli); test: Test C flooded paddy test: barnyardgrass; conditions: scale 0 to 100 (0 no effect, 100 complete control)
Summary of the method: as §2

[11] = 125 g ai/ha, 0 to 100 scale, 0 is no effect, 100 is complete control
[12] = 500 g ai/ha, visual rating on 0 to 100 scale (0 no effect, 100 complete control), approximately ten days
[13] = 125 g ai/ha, 0 to 100 scale (0 no effect, 100 complete control)
[14] = 500 g ai/ha, 0 to 100 scale, 0 is no effect, 100 is complete control
[15] = Flood (flooded paddy test), 62 g ai/ha, visual rating after 13 to 15 days
[16] = Flood (flooded paddy test), 125 g ai/ha, visual rating after 13 to 15 days
[17] = Flood (flooded paddy test), 250 g ai/ha, visual rating after 13 to 15 days

Cc1nn(-c2ccc(C(F)F)cn2)nc1C(=O)c1cccc(C(F)(F)F)c1 [Compound 68]
50: Pigweed plant response rating [5, 12]
10: Barnyardgrass plant response rating [1, 12] | Crabgrass, Large plant response rating [2, 11] | Crabgrass, Large plant response rating [2, 12] | Foxtail, Giant plant response rating [3, 11] | Foxtail, Giant plant response rating [3, 12] | Morningglory plant response rating [4, 12] | Pigweed plant response rating [5, 11] | Wheat plant response rating [7, 12] | Corn plant response rating (corn (Zea mays); [12])
0: Barnyardgrass plant response rating [1, 11] | Plant response rating, Barnyardgrass [1, 13] | Plant response rating, Barnyardgrass [1, 14] | Plant response rating, Crabgrass, Large [2, 13] | Plant response rating, Crabgrass, Large [2, 14] | Plant response rating, Foxtail, Giant [3, 13] | Plant response rating, Foxtail, Giant [3, 14] | Morningglory plant response rating [4, 11] | Plant response rating, Morningglory [4, 13] | Plant response rating, Morningglory [4, 14] | Plant response rating, Pigweed [5, 13] | Plant response rating, Pigweed [5, 14] | Velvetleaf plant response rating [6, 12] | Plant response rating, Velvetleaf [6, 13] | Plant response rating, Velvetleaf [6, 14] | Wheat plant response rating [7, 11] | Plant response rating, Wheat [7, 13] | Plant response rating, Wheat [7, 14] | Corn plant response rating (corn (Zea mays); [11]) | Plant response rating, Corn (corn (Zea mays); [13]) | Plant response rating, Corn (corn (Zea mays); [14]) | Plant response rating, Rice (rice (Oryza sativa); [15]) | Plant response rating, Rice (rice (Oryza sativa); [16]) | Plant response rating, Rice (rice (Oryza sativa); [17]) | Plant response rating, Rice (rice (Oryza sativa); Flood, 31 g ai/ha) | Plant response rating, Sedge, Umbrella [8, 15] | Plant response rating, Sedge, Umbrella [8, 16] | Plant response rating, Sedge, Umbrella [8, 17] | Plant response rating, Sedge, Umbrella ([8]; Flood, 31 g ai/ha) | Plant response rating, Ducksalad [9, 15] | Plant response rating, Ducksalad [9, 16] | Plant response rating, Ducksalad [9, 17] | Plant response rating, Ducksalad ([9]; Flood, 31 g ai/ha) | Plant response rating, Barnyardgrass [10, 15] | Plant response rating, Barnyardgrass [10, 16] | Plant response rating, Barnyardgrass [10, 17] | Plant response rating, Barnyardgrass ([10]; Flood, 31 g ai/ha)

Cc1nn(-c2ccc(Cl)nc2)nc1C(=O)c1cccc(C(F)(F)F)c1 [Compound 72]
0: Barnyardgrass plant response rating [1, 11] | Plant response rating, Barnyardgrass [1, 13] | Plant response rating, Barnyardgrass [1, 14] | Crabgrass, Large plant response rating [2, 11] | Plant response rating, Crabgrass, Large [2, 13] | Foxtail, Giant plant response rating [3, 11] | Plant response rating, Foxtail, Giant [3, 13] | Morningglory plant response rating [4, 11] | Plant response rating, Morningglory [4, 13] | Plant response rating, Morningglory [4, 14] | Plant response rating, Pigweed [5, 13] | Velvetleaf plant response rating [6, 11] | Plant response rating, Velvetleaf [6, 13] | Plant response rating, Velvetleaf [6, 14] | Wheat plant response rating [7, 11] | Wheat plant response rating [7, 12] | Plant response rating, Wheat [7, 13] | Plant response rating, Wheat [7, 14] | Corn plant response rating (corn (Zea mays); [11]) | Plant response rating, Corn (corn (Zea mays); [13]) | Plant response rating, Corn (corn (Zea mays); [14]) | Plant response rating, Rice (rice (Oryza sativa); [15]) | Plant response rating, Rice (rice (Oryza sativa); [16]) | Plant response rating, Rice (rice (Oryza sativa); [17]) | Plant response rating, Rice (rice (Oryza sativa); Flood, 31 g ai/ha) | Plant response rating, Sedge, Umbrella [8, 15] | Plant response rating, Sedge, Umbrella [8, 16] | Plant response rating, Sedge, Umbrella [8, 17] | Plant response rating, Sedge, Umbrella ([8]; Flood, 31 g ai/ha) | Plant response rating, Ducksalad [9, 15] | Plant response rating, Ducksalad [9, 16] | Plant response rating, Ducksalad [9, 17] | Plant response rating, Ducksalad ([9]; Flood, 31 g ai/ha) | Plant response rating, Barnyardgrass [10, 15] | Plant response rating, Barnyardgrass [10, 16] | Plant response rating, Barnyardgrass [10, 17] | Plant response rating, Barnyardgrass ([10]; Flood, 31 g ai/ha)
20: Plant response rating, Foxtail, Giant [3, 14]
10: Barnyardgrass plant response rating [1, 12] | Crabgrass, Large plant response rating [2, 12] | Plant response rating, Crabgrass, Large [2, 14] | Foxtail, Giant plant response rating [3, 12] | Morningglory plant response rating [4, 12] | Pigweed plant response rating [5, 11] | Plant response rating, Pigweed [5, 14] | Velvetleaf plant response rating [6, 12] | Corn plant response rating (corn (Zea mays); [12])
70: Pigweed plant response rating [5, 12]

Cc1nn(-c2ccc(C(F)(F)F)cc2)nc1Oc1ccnc(OCC(F)(F)F)c1 [Compound 77]
10: Barnyardgrass plant response rating [1, 12] | Crabgrass, Large plant response rating [2, 11] | Plant response rating, Crabgrass, Large [2, 14] | Foxtail, Giant plant response rating [3, 11] | Plant response rating, Foxtail, Giant [3, 14] | Morningglory plant response rating [4, 11] | Morningglory plant response rating [4, 12] | Plant response rating, Pigweed [5, 14] | Velvetleaf plant response rating [6, 11] | Velvetleaf plant response rating [6, 12] | Corn plant response rating (corn (Zea mays); [12])
20: Crabgrass, Large plant response rating [2, 12] | Foxtail, Giant plant response rating [3, 12]
0: Barnyardgrass plant response rating [1, 11] | Plant response rating, Barnyardgrass [1, 13] | Plant response rating, Barnyardgrass [1, 14] | Plant response rating, Crabgrass, Large [2, 13] | Plant response rating, Foxtail, Giant [3, 13] | Plant response rating, Morningglory [4, 13] | Plant response rating, Morningglory [4, 14] | Plant response rating, Pigweed [5, 13] | Plant response rating, Velvetleaf [6, 13] | Plant response rating, Velvetleaf [6, 14] | Wheat plant response rating [7, 11] | Wheat plant response rating [7, 12] | Plant response rating, Wheat [7, 13] | Plant response rating, Wheat [7, 14] | Corn plant response rating (corn (Zea mays); [11]) | Plant response rating, Corn (corn (Zea mays); [13]) | Plant response rating, Corn (corn (Zea mays); [14]) | Plant response rating, Rice (rice (Oryza sativa); [16]) | Plant response rating, Rice (rice (Oryza sativa); [17]) | Plant response rating, Rice (rice (Oryza sativa); Flood, 31 g ai/ha) | Plant response rating, Rice (rice (Oryza sativa); Flood, 62 g ai/ha) | Plant response rating, Sedge, Umbrella [8, 16] | Plant response rating, Sedge, Umbrella [8, 17] | Plant response rating, Sedge, Umbrella ([8]; Flood, 31 g ai/ha) | Plant response rating, Sedge, Umbrella ([8]; Flood, 62 g ai/ha) | Plant response rating, Ducksalad [9, 16] | Plant response rating, Ducksalad [9, 17] | Plant response rating, Ducksalad ([9]; Flood, 31 g ai/ha) | Plant response rating, Ducksalad ([9]; Flood, 62 g ai/ha) | Plant response rating, Barnyardgrass [10, 16] | Plant response rating, Barnyardgrass [10, 17] | Plant response rating, Barnyardgrass ([10]; Flood, 31 g ai/ha) | Plant response rating, Barnyardgrass ([10]; Flood, 62 g ai/ha)
100: Pigweed plant response rating [5, 12]
90: Pigweed plant response rating [5, 11]
